# From US11098017B2, “Compounds for treating disorders associated with abnormal steroidogenesis” (The General Hospital Corporation, priority 2017, dated 2021)
# Like-named read-outs stand apart in the source and are kept apart here.
# How the values were obtained:
# [1] = system: adrenocortical steroid synthesis; assay: ACTH-stimulation test in dexamethasone-suppressed rats, plasma adrenocortical steroids by ELISA; settings: for inhibition of adrenocortical steroid synthesis (FIG. 10): rats, 3 mg/kg IV dose
# Procedure: Briefly, rats were pretreated with dexamethasone (0.2 mg/kg intravenously) to reduce endogenous ACTH production and minimize baseline adrenocortical steroid concentrations. Two hours later and after receiving a second dexamethasone dose, rats received ACTH1-24 (IV) and the desired dose of either etomidate or dimethoxy-etomidate solubilized in water containing a 1:1 molar ratio of Captisol (Ligand Pharmaceuticals, San Diego, Calif.) or water containing Captisol vehicle alone as a control. Fifteen minutes later, a blood sample was drawn and ACTH-stimulated adrenocortical steroid concentrations in the plasma were determined using enzyme-linked immunosorbent assays and a 96-well plate reader (Molecular Devices, Sunnyvale, Calif.).
# 11β-hydroxylase [2] = molecular target: T1, 11β-hydroxylase (Homo sapiens, UniProt P15538); settings: previously reported work; cited from earlier work
# T1 sequence (P15538 25-503): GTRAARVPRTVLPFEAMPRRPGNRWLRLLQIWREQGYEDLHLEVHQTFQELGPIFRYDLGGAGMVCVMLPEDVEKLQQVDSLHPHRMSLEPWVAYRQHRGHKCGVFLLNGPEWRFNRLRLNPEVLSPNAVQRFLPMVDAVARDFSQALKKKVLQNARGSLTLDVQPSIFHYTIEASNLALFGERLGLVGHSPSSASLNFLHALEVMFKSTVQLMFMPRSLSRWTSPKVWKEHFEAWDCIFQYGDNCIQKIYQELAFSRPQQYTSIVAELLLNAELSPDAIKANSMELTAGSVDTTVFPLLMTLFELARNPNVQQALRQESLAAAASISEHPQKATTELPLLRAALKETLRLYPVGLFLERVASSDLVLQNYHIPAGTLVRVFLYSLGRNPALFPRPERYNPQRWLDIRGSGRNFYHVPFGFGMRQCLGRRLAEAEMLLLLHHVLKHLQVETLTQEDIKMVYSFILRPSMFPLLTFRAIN
# α1β3γ2L GABAA receptor = molecular target: T2, α1β3γ2L GABAA receptor (Homo sapiens, UniProt P14867+P28472); assay: GABAA receptor electrophysiology, potentiation of EC5 GABA-evoked currents in Xenopus oocytes; format: cell-based; settings: for maximum peak current at high drug concentrations, % of that produced by 1 mM GABA: Hill fit, EC5 GABA + drug
# T2 construct: expressed in transfected cells; host or cells: Xenopus oocytes injected with mRNA
# Procedure: Oocytes were then incubated in ND96 buffer (96 mM NaCl, 2 mM KCl, 1.8 mM CaCl2, 1 mM MgCl2, 5 mM HEPES, pH=7.4) containing 0.05 mg/mL of gentamicin for 18 to 48 hours at 18° C. before electrophysiological study. […] For each oocyte, a GABA concentration-peak current response curve was generated to define the GABA concentration that elicits 5% of the current evoked by 1 mM GABA (i.e., EC5 GABA). The effect of drug (etomidate or dimethoxy-etomidate) was then defined in that oocyte by perfusing it with EC5 GABA alone for 15-20 s followed immediately by EC5 GABA+drug at the desired concentration for 20-60 s. The resulting current response was then recorded. The peak current response recorded in the presence of EC5 GABA+drug was then normalized to the peak current response evoked by 1 mM GABA. Between electrophysiological recordings, oocytes were perfused with buffer for at least 3 min to remove GABA (and drug, if present) and to allow receptors to recover from desensitization.
# In these fits, the minimum was constrained to 5% (by definition, for EC5 evoked currents).
# Sprague-Dawley rats [3] = assay: Loss of righting reflexes (LORR) assay, sedative-hypnotic activity; settings: for ED50: Rattus norvegicus, iv, read-out: ED50 for loss of righting reflexes; for dose producing loss of righting reflexes in all rats: IV
# Procedure: Briefly, the desired dose of drug in dimethyl sulfoxide vehicle (0.1-0.3 mL) was rapidly (<5 s) injected through a 24-gauge intravenous catheter placed in a tail vein. This was followed by a 0.5-mL normal saline flush. Immediately after injection, rats were turned supine. […] The duration of LORR was defined as the time from drug injection until the animal spontaneously righted itself onto all four legs.
# 11β-hydroxylase [4] = molecular target: T3, 11β-hydroxylase (Rattus norvegicus, UniProt P15393); assay: Displacement of [3H]-etomidate from adrenal membranes; format: binding
# T3 construct: tissue BioreclamationlVT; host or cells: membranes (homogenate pellet) from Sprague-Dawley rat adrenal glands
# T3 sequence (P15393 25-499): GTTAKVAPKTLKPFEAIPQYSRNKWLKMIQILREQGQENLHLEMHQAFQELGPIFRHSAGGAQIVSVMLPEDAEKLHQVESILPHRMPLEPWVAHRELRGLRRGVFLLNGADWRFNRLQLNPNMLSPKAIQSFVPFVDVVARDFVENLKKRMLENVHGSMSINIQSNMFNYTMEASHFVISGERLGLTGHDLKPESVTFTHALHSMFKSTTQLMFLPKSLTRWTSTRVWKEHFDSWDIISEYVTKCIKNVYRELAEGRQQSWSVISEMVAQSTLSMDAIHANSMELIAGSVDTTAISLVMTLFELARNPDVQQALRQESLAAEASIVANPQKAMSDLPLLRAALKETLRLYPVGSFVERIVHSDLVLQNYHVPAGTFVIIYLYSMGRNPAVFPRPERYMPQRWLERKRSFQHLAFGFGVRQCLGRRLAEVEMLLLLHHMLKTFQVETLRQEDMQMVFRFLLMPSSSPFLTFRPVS
# Procedure: Briefly, 4 adrenal glands were thawed for each preparation, placed on a glass stand, cut into pieces, and then added to ice-cold preparation buffer (HEPES 10 mM, EDTA 1 mM, leupeptin 10 μg/mL, chymostatin 10 μg/mL, pepstatin A 10 μg/mL, aprotinin 2 μg/mL, polymethanesulfonyl fluoride 1 mM and ethanol 10 μg/mL). After homogenization, carboxylesterases were inactivated by incubating with 1 mM diisopropyl fluorophosphate (Sigma-Aldrich) for 60 min. The mixture was then centrifuged and the resulting pellet was washed twice. The final pellet was then re-suspended in buffer by manual homogenization, passed through a 23-gauge needle three times, aliquoted into 1 mL eppendorf tubes, and stored at −80° C. until used. The protein concentration in these samples was quantified using a Pierce BCA Protein Assay Kit (ThermoFisher, Rockford, Ill., USA). All binding experiments were performed in glass vials at room temperature with the final concentration of protein adjusted to 0.07 mg/mL. The reported data were obtained using 3 separate preparations.
# After equilibration, the mixture was passed through a pre-soaked (with 0.5% polyethylenimine in water for 2 h) 25 mm GF/B glass fiber filter under suction, the filter was immediately washed twice with 5 mL of assay buffer. After drying under a heat lamp for two hours, each filter was transferred to a scintillation vial. Liquiscint scintillation cocktail (National Diagnostics, Atlanta, Ga., USA) was added to the vial and the radioactivity in the vial quantified using a Packard Tri-Carb liquid scintillation counter (Meriden, Conn., USA). The concentration-response relationships for inhibition of [^3H]-etomidate by etomidate and dimethoxy-etomidate were fit to one and two site models, respectively, using Prism 6 for Mac OS X.
# Sprague-Dawley rats [5] = assay: Myoclonic movements in rats, two-way crossover; format: in vivo, rat; settings: 3 mg/kg IV; for occurrence of myoclonus and LoRR: 30-minute observation, n=8
# Procedure: Rats were immediately tested for LoRR and the number of myoclonic events was recorded during each 5-minute epoch for 30 minutes. A myoclonic event was defined as an unproductive (i.e., not associated with LoRR, feeding, or grooming behaviors) movement. Each distinct jerk or tremor constituted a single event. To avoid potentially confounding movements associated with bruxing, boggling, sniffing, and grooming, myoclonus was only considered to occur in the head and jaw when there was the presence of abnormal tongue lolling and jaw movement, or a sharp head movement out of sync with the rats breathing. At the end of the 30-minute observation period, rats were returned to their cages. After a 24-hour recovery period, each rat was crossed over to the other drug group and the experiment repeated.
# [6] = 50 mg/kg intravenous dose; cited from earlier work
# [7] = 0.3 mg/kg IV, 15 min, vs vehicle control
# [8] = 3 mg/kg IV, 15 min, vs vehicle control
# [9] = 50 mg/kg IV, vs vehicle control
# T2 sequence (P14867 28-456): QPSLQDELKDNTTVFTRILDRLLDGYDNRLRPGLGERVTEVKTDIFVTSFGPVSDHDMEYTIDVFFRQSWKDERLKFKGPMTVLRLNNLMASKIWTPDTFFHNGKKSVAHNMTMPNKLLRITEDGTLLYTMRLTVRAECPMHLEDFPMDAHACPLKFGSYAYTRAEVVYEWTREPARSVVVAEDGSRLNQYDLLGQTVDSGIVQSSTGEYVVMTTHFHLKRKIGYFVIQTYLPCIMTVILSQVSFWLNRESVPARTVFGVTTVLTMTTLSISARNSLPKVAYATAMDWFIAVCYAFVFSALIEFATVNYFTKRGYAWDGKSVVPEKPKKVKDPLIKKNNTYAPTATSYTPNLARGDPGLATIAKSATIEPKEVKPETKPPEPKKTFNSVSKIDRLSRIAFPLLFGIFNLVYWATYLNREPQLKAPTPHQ
# T2 sequence (P28472 26-473): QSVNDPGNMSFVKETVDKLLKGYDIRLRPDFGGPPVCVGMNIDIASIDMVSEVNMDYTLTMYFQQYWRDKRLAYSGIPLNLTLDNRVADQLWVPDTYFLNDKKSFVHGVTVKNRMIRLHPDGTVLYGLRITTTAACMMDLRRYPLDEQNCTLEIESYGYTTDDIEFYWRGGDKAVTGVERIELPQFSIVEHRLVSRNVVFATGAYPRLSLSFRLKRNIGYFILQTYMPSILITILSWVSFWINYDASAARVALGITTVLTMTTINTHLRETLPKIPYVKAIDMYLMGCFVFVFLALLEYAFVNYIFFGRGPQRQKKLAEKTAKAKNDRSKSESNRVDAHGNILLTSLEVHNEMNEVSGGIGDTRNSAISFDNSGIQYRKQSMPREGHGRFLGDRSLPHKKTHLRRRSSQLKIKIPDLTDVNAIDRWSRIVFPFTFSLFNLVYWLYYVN
# T2 sequence (P18507 40-475 partner): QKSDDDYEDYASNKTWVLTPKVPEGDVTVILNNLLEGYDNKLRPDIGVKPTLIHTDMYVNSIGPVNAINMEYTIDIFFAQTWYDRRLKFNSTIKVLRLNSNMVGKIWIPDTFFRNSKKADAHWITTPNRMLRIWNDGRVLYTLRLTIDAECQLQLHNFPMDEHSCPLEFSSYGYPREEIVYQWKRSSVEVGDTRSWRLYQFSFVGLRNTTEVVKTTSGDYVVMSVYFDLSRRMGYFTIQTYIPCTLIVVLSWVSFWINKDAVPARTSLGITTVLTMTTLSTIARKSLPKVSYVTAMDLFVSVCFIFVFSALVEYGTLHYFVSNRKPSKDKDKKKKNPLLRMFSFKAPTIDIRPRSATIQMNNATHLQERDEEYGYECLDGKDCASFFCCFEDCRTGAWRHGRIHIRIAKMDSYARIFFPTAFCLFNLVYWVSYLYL
Structure (SMILES),inhibition of adrenocortical steroid synthesis (FIG. 10) [1],"maximum peak current at high drug concentrations, % of that produced by 1 mM GABA (α1β3γ2L GABAA receptor) [%]",ED50 (Sprague-Dawley rats [3]) [mg/kg],dose producing loss of righting reflexes in all rats (Sprague-Dawley rats [3]) [mg/kg],effect on ACTH-stimulated plasma 11-deoxycorticosterone concentration ([1]; 0.3 mg/kg IV),effect on ACTH-stimulated plasma pregnenolone concentration ([1]; 0.3 mg/kg IV),effect on ACTH-stimulated plasma progesterone concentration ([1]; 0.3 mg/kg IV),"reduction of ACTH-stimulated plasma corticosterone concentration [1, 7]",effect on ACTH-stimulated plasma 11-deoxycorticosterone concentration ([1]; 3 mg/kg IV),effect on ACTH-stimulated plasma pregnenolone concentration ([1]; 3 mg/kg IV),effect on ACTH-stimulated plasma progesterone concentration ([1]; 3 mg/kg IV),"ACTH-stimulated plasma corticosterone concentration ([1]; 3 mg/kg IV, 15 min) [ng/m]","reduction of ACTH-stimulated plasma corticosterone concentration [1, 8] [%]",IC50 (11β-hydroxylase [4]) [nM],occurrence of myoclonus and LoRR (Sprague-Dawley rats [5]),other results
"CCOC(=O)c1cncn1[C@H](C)c1cccc2ccccc12 [Example 4, ethyl (R)-1-(1-(naphthalen-1-yl)ethyl)-1H-imidazole-5-carboxylate]",similarly inhibited adrenocortical steroid synthesis,,,,,,,,,,,,,,,
"CCOC(=O)c1cncn1[C@H](C)c1ccc2ccccc2c1 [Example 5, ethyl (R)-1-(1-(naphthalen-2-yl)ethyl)-1H-imidazole-5-carboxylate]",similarly inhibited adrenocortical steroid synthesis,,,,,,,,,,,,,,,
"CCOC(=O)c1cccn1[C@H](C)c1ccccc1 [carboetomidate, ethyl (R)-1-(1-phenylethyl)-1H-pyrrole-2-carboxylate]",,,,,,,,,,,,,,,,binding affinity to 11β-hydroxylase and adrenocortical inhibitory potency relative to etomidate (11β-hydroxylase [2]): reduced by three-orders of magnitude
"CCOC(=O)c1cncn1[C@H](C)c1cc(OC)cc(OC)c1 [dimethoxy-etomidate, Ethyl (R)-1-(1-(3,5-dimethoxyphenyl)ethyl)-1H-imidazole-5-carboxylate]",,11,72 ± 13,100,neither etomidate nor dimethoxy-etomidate altered,neither etomidate nor dimethoxy-etomidate altered,neither etomidate nor dimethoxy-etomidate altered,63%,without significantly affecting,without significantly affecting,without significantly affecting,19±10,87,7.9,produced no myoclonic events or LoRR in any rat,"EC50 (α1β3γ2L GABAA receptor): 210000 nM; magnitude of peak current enhancement relative to that produced by the same concentration of etomidate (α1β3γ2L GABAA receptor; EC5 GABA evoked currents): ≤ ⅛; time required for righting reflexes to return (LoRR duration) (Sprague-Dawley rats [3]; 100 mg/kg IV): 2.2 ± 0.7 min; sedative-hypnotic potency compared to etomidate (Sprague-Dawley rats [3]; from LoRR ED50s): two order of magnitude reduction; ACTH-stimulated plasma corticosterone concentration ([1]; 0.3 mg/kg IV, 15 min): 56 ± 13 ng/mL; ACTH-stimulated plasma 11-deoxycorticosterone concentration ([1]; 50 mg/kg IV): 24 ± 12 ng/mL; ACTH-stimulated plasma corticosterone concentration ([1]; 50 mg/kg IV): 12 ± 1 ng/mL; effect on ACTH-stimulated plasma pregnenolone concentration ([1]; 50 mg/kg IV): unaffected; effect on ACTH-stimulated plasma progesterone concentration ([1]; 50 mg/kg IV): unaffected; reduction of ACTH-stimulated plasma 11-deoxycorticosterone concentration [1, 9]: 69%; reduction of ACTH-stimulated plasma corticosterone concentration [1, 9]: 95%; IC50 (11β-hydroxylase [4]; read-out: IC50 for displacement of [3H]-etomidate, low affinity site, 2 nM [3H]-etomidate, two site fit): 4270 nM; high affinity site share of all sites (11β-hydroxylase [4]; two site fit): 55%"
"CCOC(=O)c1cncn1[C@H](C)c1ccccc1 [etomidate, ethyl (R)-1-(1-phenylethyl)-1H-imidazole-5-carboxylate, reference compound]",,103,0.77 ± 0.17,≥ 1,neither etomidate nor dimethoxy-etomidate altered,neither etomidate nor dimethoxy-etomidate altered,neither etomidate nor dimethoxy-etomidate altered,no significant effect,without significantly affecting,without significantly affecting,without significantly affecting,19±11,87,21,produced myoclonus and LORR in all rats,"time required for righting reflexes to return (LoRR duration) (Sprague-Dawley rats [3]; 3 mg/kg IV, highest etomidate dose studied): 16.3 ± 0.5 min; lethality [6]: lethal; maximum mean (±SEM) number of myoclonic events per rat (Sprague-Dawley rats [5]; 5-10-minute epoch): 13.8±2.2; mean (±SEM) total number of myoclonic events in each rat (Sprague-Dawley rats [5]; 30-minute observation period): 34±2.4"
